Experimental data as given in patent EP4603105A1, “PHARMACEUTICAL COMPOSITION CONTAINING CYCLIC COMPOUND HAVING SELECTIVE KRAS INHIBITORY EFFECT AGAINST HRAS AND NRAS” (CHUGAI SEIYAKU KABUSHIKI KAISHA, priority 2022, dated 2024).
Read-outs that look alike come from different tables or passages of the source.

Experiments:
[1] = system: human lung cancer strain NCI-H441; experiment: NCI-H441 cell proliferation inhibitory activity (CellTiter-Glo, 4 days); type: cell-based; conditions: read-out: NCl-H441 IC50
Summary of the method: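 Step one: dispense the test compound in serial DMSO dilutions. Step three: add the reagent and measure […].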

[2] = biological target: GDP-bound NRAS wild-type protein (Homo sapiens, UniProt P01111); experiment: Binding to NRAS by surface plasmon resonance (SPR), KD and KD ratio to KRAS
Summary of the method: (§1)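 Running buffer contained 10 µM GDP and 10 mM MgCl2 to keep RAS in the GDP state, with 4% DMSO at pH 7.4. Compounds were flowed at 100 µL/min in 75 s steps of rising concentration over captured biotin-Avi RAS at 30°C. Sensorgrams were fitted 1:1 for KD.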

[3] = biological target: GDP-bound KRAS wild-type protein (Homo sapiens, UniProt P01116); experiment: Binding to KRAS by surface plasmon resonance (SPR), dissociation constant KD
Summary of the method: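 GDP-bound biotin-Avi RAS captured at ~100–300 RU, 30°C, pH 7.4 HBS containing 10 µM GDP, 10 mM MgCl2, 1 mM DTT, 0.01% Tween 20 and 4% DMSO. KD by 1:1 fitting.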

HRAS wild-type protein = HRAS wild-type protein (Homo sapiens, UniProt P01112); experiment: Binding to HRAS by surface plasmon resonance (SPR), KD and KD ratio to KRAS
Summary of the method: as §1

[4] = 50% proliferation inhibitory concentration, four days
[5] = ratio of KD with respect to GDP-bound NRAS wild-type protein to KD with respect to KRAS
[6] = Single Cycle Kinetics, 1:1 binding model
[7] = ratio of KD with respect to HRAS wild-type protein to KD with respect to KRAS
[8] = ratio of KD for GDP-bound NRAS wild-type protein to KD for KRAS
[9] = ratio of KD for HRAS wild-type protein to KD for KRAS

Chain of GDP-bound NRAS wild-type protein (P01111 whole entry): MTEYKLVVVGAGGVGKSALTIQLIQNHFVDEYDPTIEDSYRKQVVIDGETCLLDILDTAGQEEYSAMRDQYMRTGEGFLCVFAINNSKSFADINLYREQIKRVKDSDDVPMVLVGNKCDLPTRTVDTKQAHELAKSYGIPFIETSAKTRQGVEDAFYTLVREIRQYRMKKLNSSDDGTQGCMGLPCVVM
Chain of GDP-bound KRAS wild-type protein (P01116 1-188 isoform P01116-2): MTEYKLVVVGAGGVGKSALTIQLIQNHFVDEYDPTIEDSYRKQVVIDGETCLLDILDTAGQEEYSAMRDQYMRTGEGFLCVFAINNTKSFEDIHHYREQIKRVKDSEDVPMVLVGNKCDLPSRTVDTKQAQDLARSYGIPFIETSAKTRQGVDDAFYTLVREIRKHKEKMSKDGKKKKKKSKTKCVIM
Chain of HRAS wild-type protein (P01112 whole entry): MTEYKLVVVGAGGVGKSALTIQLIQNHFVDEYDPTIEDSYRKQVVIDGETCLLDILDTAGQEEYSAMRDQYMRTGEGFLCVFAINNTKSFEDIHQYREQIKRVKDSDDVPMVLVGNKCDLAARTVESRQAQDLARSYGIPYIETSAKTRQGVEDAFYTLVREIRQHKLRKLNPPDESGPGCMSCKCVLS

Row | IC50 [1, 4] | Kd [3, 6] | IC50 ([1]; NCI-H441 cells, 4 days) | Kd ([3]; Single Cycle Kinetics) | Kd ([3]; 1:1 binding model) | Compound | NRAS /KRAS [2, 5] | HRAS /KRAS (HRAS wild-type protein; [7]) | NRAS /KRAS [2, 8] | HRAS /KRAS (HRAS wild-type protein; [9])
1 | 51 nM | 0.32 nM |  |  |  | CCO[C@@H]1C[C@H]2C(=O)NC3(CCC3)C(=O)N(C)[C@@H](C3CCCC3)C(=O)N(C)[C@H](C)CC(=O)N(C)[C@@H](CC3CC3)C(=O)N[C@@H]([C@@H](C)CC)C(=O)N(C)CC(=O)N(C)[C@H]3C/C=C\CCN(C3=O)[C@@H](Cc3ccc(C)cc3)C(=O)N(C)CC(=O)N[C@@H](CCc3cc(F)c(C(F)(F)F)c(F)c3)C(=O)N2C1 [PP1410] | B (a compound having 3 or more and less than 10 is denoted as B) | B (a compound having 3 or more and less than 10 is denoted as B) |  | 
2 |  |  | 90.6 nM | 2.5 nM |  | C=C(C)C[C@H]1C(=O)N(C)[C@H](C(=O)N(C)C)CC(=O)N(C)[C@@H](CCC)C(=O)N[C@@H]([C@@H](C)CC)C(=O)N2CCC[C@H]2C(=O)N(C)[C@H]2C/C=C\CCN(C2=O)[C@@H](Cc2ccc(C(F)(F)F)cc2)C(=O)N(C)CC(=O)N[C@@H](CCc2ccc(C(F)(F)F)c(OC)c2)C(=O)N2C[C@H](OCC)C[C@H]2C(=O)N(C)C2(CCC2)C(=O)N1C [PP3335] |  |  | A (a compound having 10 or more and less than 20 is denoted as A) | A (a compound having 10 or more and less than 20 is denoted as A)
3 |  |  | 76.7 nM |  | 2.4 nM | CCO[C@@H]1C[C@H]2C(=O)NC3(CC(C)(C)C3)C(=O)N(C)[C@@H](C(CC)CC)C(=O)N(C)[C@H](C(=O)N(C)C)CC(=O)N(C)[C@@H](C(C)C)C(=O)N[C@@H]([C@@H](C)CC)C(=O)N(C)CC(=O)N(C)[C@H]3C/C=C\CCN(C3=O)[C@@H](CC3CCC(F)(F)CC3)C(=O)N(C)CC(=O)N[C@@H](CCc3ccc(C(F)(F)F)c(Cl)c3)C(=O)N2C1 [PP2492] |  |  | AA (a compound having 20 or more is denoted as AA) | A (a compound having 10 or more and less than 20 is denoted as A)
4 | 3.7 nM | 0.06 nM |  |  |  | CCO[C@@H]1C[C@H]2C(=O)NC3(CCC3)C(=O)N(C)[C@@H](C3CCCC3)C(=O)N(C)[C@H](C(=O)N(C)C)CC(=O)N(C)[C@@H](CC(C)C)C(=O)N[C@@H]([C@@H](C)CC)C(=O)N(C)CC(=O)N(C)[C@H]3C/C=C\CCN(C3=O)[C@@H](Cc3ccc(C(F)(F)F)cc3)C(=O)N(C)CC(=O)N[C@@H](CCc3ccc(C(F)(F)F)c(OC)c3)C(=O)N2C1 [PP1245] | A (a compound having 10 or more and less than 20 is denoted as A) | B (a compound having 3 or more and less than 10 is denoted as B) |  | 
5 | 57.5 nM | 0.18 nM |  |  |  | CCO[C@@H]1C[C@H]2C(=O)NC3(CCC3)C(=O)N(C)[C@@H](C3CCCC3)C(=O)N(C)[C@H](C(=O)N(C)C)CC(=O)N(C)[C@@H](Cc3ccc(Cl)c(Cl)c3)C(=O)N[C@@H]([C@@H](C)CC)C(=O)N(C)CC(=O)N(C)[C@H]3CCCCCN(C3=O)[C@@H](Cc3ccc(F)cc3)C(=O)N(C)CC(=O)N[C@@H](CCc3cc(F)c(C(F)(F)F)c(F)c3)C(=O)N2C1 [PP1158] | B (a compound having 3 or more and less than 10 is denoted as B) | B (a compound having 3 or more and less than 10 is denoted as B) |  | 
6 |  |  | 19.4 nM | 0.96 nM |  | CCC[C@H]1C(=O)N[C@@H]([C@@H](C)CC)C(=O)N2CCCC[C@H]2C(=O)N(C)[C@H]2C/C=C\CCN(C2=O)[C@@H](Cc2ccc(C(F)(F)F)cc2)C(=O)N(C)CC(=O)N[C@@H](CCc2ccc(C(F)(F)F)c(Cl)c2)C(=O)N2C[C@H](OCC)C[C@H]2C(=O)N(C)C2(CCC2)C(=O)N(C)[C@@H](C2CCCC2)C(=O)N(C)[C@H](C(=O)N(C)C)CC(=O)N1C [PP3272] |  |  | A (a compound having 10 or more and less than 20 is denoted as A) | B (a compound having 3 or more and less than 10 is denoted as B)
7 |  |  | 58.3 nM | 0.86 nM |  | C=C(C)C[C@H]1C(=O)N(C)[C@H](C(=O)N(C)C)CC(=O)N(C)[C@@H](CC(C)C)C(=O)N[C@@H]([C@@H](C)CC)C(=O)N(C)CC(=O)N(C)[C@H]2C/C=C\CCN(C2=O)[C@@H](Cc2ccc(C)cc2)C(=O)N(C)CC(=O)N[C@@H](CCc2ccc(C(F)(F)F)c(OC)c2)C(=O)N2C[C@H](OCC)C[C@H]2C(=O)N(C)C2(CCC2)C(=O)N1C [PP3345] |  |  | A (a compound having 10 or more and less than 20 is denoted as A) | A (a compound having 10 or more and less than 20 is denoted as A)
8 |  |  | 8.3 nM | 0.2 nM |  | CCC[C@H]1C(=O)N[C@@H]([C@@H](C)CC)C(=O)N(C2CC2)CC(=O)N(C)[C@H]2C/C=C\CCN(C2=O)[C@@H](Cc2ccc(C(F)(F)F)cc2)C(=O)N(C)CC(=O)N[C@@H](CCc2cc(F)c(C(F)(F)F)c(F)c2)C(=O)N2CC[C@H](OC)[C@H]2C(=O)N(C)C2(CCC2)C(=O)N(C)[C@@H](C2CCCC2)C(=O)N(C)[C@H](C(=O)N(C)C)CC(=O)N1C [PP3282] |  |  | A (a compound having 10 or more and less than 20 is denoted as A) | A (a compound having 10 or more and less than 20 is denoted as A)
9 | 16.7 nM | 0.24 nM |  |  |  | CCO[C@@H]1C[C@H]2C(=O)NC3(CCC3)C(=O)N(C)[C@@H](C3CCCC3)C(=O)N(C)[C@H](C(=O)N3CCCCC3)CC(=O)N(C)[C@@H](CC3CC3)C(=O)N[C@@H]([C@@H](C)CC)C(=O)N(C)CC(=O)N(C)[C@H]3C/C=C\CCN(C3=O)[C@@H](Cc3ccc(C(F)(F)F)cc3)C(=O)N(C)CC(=O)N[C@@H](CCc3cc(F)c(C(F)(F)F)c(F)c3)C(=O)N2C1 [PP1291] | A (a compound having 10 or more and less than 20 is denoted as A) | A (a compound having 10 or more and less than 20 is denoted as A) |  | 
10 |  |  | 17 nM | 0.28 nM |  | CCO[C@@H]1C[C@H]2C(=O)NC3(CCC3)C(=O)N(C)[C@@H](C3CCCC3)C(=O)N(C)[C@H](C(=O)N(C)C)CC(=O)N(C)[C@@H](CC(C)C)C(=O)N[C@@H]([C@@H](C)CC)C(=O)N(C)CC(=O)N(C)[C@H]3C/C(F)=C\CCN(C3=O)[C@@H](Cc3ccc(C)cc3)C(=O)N(C)CC(=O)N[C@@H](CCc3cc(F)c(C(F)(F)F)c(F)c3)C(=O)N2C1 [PP3515] |  |  | B (a compound having 3 or more and less than 10 is denoted as B) | B (a compound having 3 or more and less than 10 is denoted as B)
11 |  |  | 21.3 nM |  | 0.29 nM | CCOC[C@H]1C(=O)N[C@@H]([C@@H](C)CC)C(=O)N(C)CC(=O)N(C)[C@H]2C/C=C\CCN(C2=O)[C@@H](Cc2ccc(C)cc2)C(=O)N(C)CC(=O)N[C@@H](CCc2ccc(C(F)(F)F)c(OC)c2)C(=O)N2C[C@H](OCC)C[C@H]2C(=O)NC2(CC(C)(C)C2)C(=O)N(C)[C@@H](C2CCCC2)C(=O)N(C)[C@H](C(=O)N(CC)CC)CC(=O)N1C [PP2406] |  |  | A (a compound having 10 or more and less than 20 is denoted as A) | A (a compound having 10 or more and less than 20 is denoted as A)
12 | 121 nM | 0.27 nM |  |  |  | CC[C@H](C)[C@@H]1NC(=O)[C@H](CC)N(C)C(=O)C[C@@H](C(=O)N(C)C)N(C)C(=O)[C@H](C2CCCC2)N(C)C(=O)C2(CCC2)NC(=O)[C@@H]2CCCN2C(=O)[C@H](CCc2cc(F)c(C(F)(F)F)c(F)c2)NC(=O)CN(C)C(=O)[C@H](CC2CCC(F)(F)CC2)N2CC/C=C\C[C@@H](C2=O)N(C)C(=O)CN(C)C1=O [PP1461] | A (a compound having 10 or more and less than 20 is denoted as A) | A (a compound having 10 or more and less than 20 is denoted as A) |  | 
13 |  |  | 11.4 nM | 0.15 nM |  | CCC[C@H]1C(=O)N[C@@H]([C@@H](C)CC)C(=O)N2CCC[C@H]2C(=O)N(C)[C@H]2C/C=C\CCN(C2=O)[C@@H](Cc2ccc(C)cc2)C(=O)N(C)CC(=O)N[C@@H](CCc2cc(F)c(C(F)(F)F)c(F)c2)C(=O)N2CC[C@H](OC)[C@H]2C(=O)N(C)C2(CCC2)C(=O)N(C)[C@@H](C2CCCC2)C(=O)N(C)[C@H](C(=O)N(C)C)CC(=O)N1C [PP3286] |  |  | A (a compound having 10 or more and less than 20 is denoted as A) | A (a compound having 10 or more and less than 20 is denoted as A)
14 |  |  | 66.4 nM |  | 0.8 nM | CCC[C@H]1C(=O)N[C@@H]([C@@H](C)CC)C(=O)N(C2CC2)CC(=O)N(C)[C@H]2C/C=C\CCN(C2=O)[C@@H](Cc2ccc(C)cc2)C(=O)N(C)CC(=O)N[C@@H](CCc2ccc(Cl)c(Cl)c2)C(=O)N2C[C@H](OC3CCC3)C[C@H]2C(=O)NC2(CC(C)(C)C2)C(=O)N(C)[C@@H](C2CCCC2)C(=O)N(C)[C@H](C(=O)N(C)C)CC(=O)N1C [PP2616] |  |  | A (a compound having 10 or more and less than 20 is denoted as A) | A (a compound having 10 or more and less than 20 is denoted as A)
15 |  |  | 7 nM | 0.21 nM |  | CCC[C@H]1C(=O)N[C@@H]([C@@H](C)CC)C(=O)N2CCC[C@H]2C(=O)N(C)[C@H]2C/C=C\CCN(C2=O)[C@@H](Cc2ccc(C)cc2)C(=O)N(C)CC(=O)N[C@@H](CCc2ccc(C(F)(F)F)c(Cl)c2)C(=O)N2CC[C@H](OC)[C@H]2C(=O)N(C)C2(CCC2)C(=O)N(C)[C@@H](C2CCCC2)C(=O)N(C)[C@H](C(=O)N(C)C)CC(=O)N1C [PP3235] |  |  | A (a compound having 10 or more and less than 20 is denoted as A) | A (a compound having 10 or more and less than 20 is denoted as A)
